# Assay results taken from patent publication US7420056B2, “Substituted bicyclic imidazo-3-ylamine compounds” (Gruenenthal GmbH, priority 2004, dated 2008).
# pIC50: −log10 of the molar value.
# Target: mGluR5 receptor (Sus scrofa, UniProt I3LUI7)
# Test: Affinity for the mGluR5 receptor: inhibition of 3[H]-MPEP binding in pig brain homogenate
# Details: 10 μM compound, 5 nM 3[H]-MPEP, read-out: mGluR5 receptor inhibition of ^3[H]-MPEP binding [10 μM] in % at a concentration of the example compounds of 10 μM
# Method: 1. Method for Determining Affinity for the mGluR5 Receptor
# Pig brain homogenate is produced by homogenisation (Polytron Pt 3000, Kinematica AG, 10,000 revolutions per minute for 90 seconds) of pig brain hemispheres without medulla, cerebellum and pons in a buffer of pH 8.0 (30 mM Hepes, Sigma, order number H3375+1 tablet Complete Roche Diagnostics, order number 1836145 made up to 100 ml) in a ratio of 1:20 (brain weight/volume) and differential centrifugation at 900×g and 40,000×g. 450 μg of protein from brain homogenate is incubated in each case in 250 μl incubation batches in 96-well microtitre plates with 5 nM 3[H]-MPEP (Tocris, order number R1212) (MPEP=2-methyl-6-[…]) and the compounds to be investigated (10 μM in the test) in the buffer (as above) at room temperature for 60 minutes.
# The batches are then filtered with the assistance of a Brandel Cell Harvester (Brandel, Grade Robotic 9600) on Unifilter plates with glass filter mats (Perkin Elmer, order number 6005177) and then washed 3 times with buffer (as above) using 250 μl per sample. The filter plates are then dried for 60 minutes at 55° C. Then 30 μl of Ultima Gold™ scintillating material (Packard BioScience, order number 6013159) is added per well and after 3 hours the samples are measured using the β counter (Microbeta, Perkin Elmer). Nonspecific binding is determined by the addition of 10 μM MPEP (Tocris, order number 1212).
# mGluR5 receptor, sequence (I3LUI7 19-1212): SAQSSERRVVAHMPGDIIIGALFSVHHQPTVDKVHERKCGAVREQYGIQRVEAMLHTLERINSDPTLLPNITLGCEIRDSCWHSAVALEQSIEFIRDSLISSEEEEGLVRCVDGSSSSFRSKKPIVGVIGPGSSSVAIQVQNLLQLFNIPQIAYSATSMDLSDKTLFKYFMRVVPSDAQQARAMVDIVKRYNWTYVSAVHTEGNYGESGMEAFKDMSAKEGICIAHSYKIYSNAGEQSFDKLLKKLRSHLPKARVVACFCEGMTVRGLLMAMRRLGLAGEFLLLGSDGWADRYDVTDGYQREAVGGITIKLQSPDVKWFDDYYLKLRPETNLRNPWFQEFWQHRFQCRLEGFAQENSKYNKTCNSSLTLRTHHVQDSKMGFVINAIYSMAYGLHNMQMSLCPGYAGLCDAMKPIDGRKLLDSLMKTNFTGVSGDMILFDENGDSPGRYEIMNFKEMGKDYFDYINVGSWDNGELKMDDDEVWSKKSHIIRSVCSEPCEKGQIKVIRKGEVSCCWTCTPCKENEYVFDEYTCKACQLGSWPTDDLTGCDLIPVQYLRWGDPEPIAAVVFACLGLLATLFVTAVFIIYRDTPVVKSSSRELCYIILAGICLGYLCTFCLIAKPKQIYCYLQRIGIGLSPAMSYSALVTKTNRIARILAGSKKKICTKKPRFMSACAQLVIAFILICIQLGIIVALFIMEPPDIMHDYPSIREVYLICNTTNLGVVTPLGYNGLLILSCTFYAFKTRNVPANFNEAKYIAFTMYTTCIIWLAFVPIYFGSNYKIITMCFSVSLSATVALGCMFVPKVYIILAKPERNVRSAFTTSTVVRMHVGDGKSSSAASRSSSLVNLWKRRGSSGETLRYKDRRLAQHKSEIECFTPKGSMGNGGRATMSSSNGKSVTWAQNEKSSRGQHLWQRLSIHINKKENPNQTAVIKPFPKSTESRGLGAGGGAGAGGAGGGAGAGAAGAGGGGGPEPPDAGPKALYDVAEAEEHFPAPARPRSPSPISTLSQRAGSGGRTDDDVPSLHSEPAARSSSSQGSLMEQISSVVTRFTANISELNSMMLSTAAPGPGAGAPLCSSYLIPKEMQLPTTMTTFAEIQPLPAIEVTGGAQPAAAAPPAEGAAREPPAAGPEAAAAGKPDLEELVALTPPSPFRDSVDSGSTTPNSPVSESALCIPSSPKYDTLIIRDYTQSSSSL
row,SMILES,inhibition at 10 µM [%]
1,"C(#Cc1ccc(-c2nc3cnccn3c2NC2CCCC2)s1)c1ccccc1 [Example 1, cyclopentyl-[2-(5-phenylethynyl-thiophen-2-yl)-imidazo[1,2-a]pyrazin-3-yl]-amine]",52
2,"Cc1cccc2nc(-c3ccc(C#Cc4ccccc4)s3)c(NCC3CCCCC3)n12 [Example 2, cyclohexylmethyl-[5-methyl-2-(5-phenylethynyl-thiophen-2-yl)-imidazo[1,2-a]pyridin-3-yl]-amine]",95
3,"Cc1ccc2nc(-c3ccc(C#Cc4ccccc4)s3)c(NCC3CCCCC3)n2c1 [Example 3, cyclohexylmethyl-[6-methyl-2-(5-phenylethynyl-thiophen-2-yl)-imidazo[1,2-a]pyridin-3-yl]-amine]",95
4,"Cc1ccn2c(NCC3CCCCC3)c(-c3ccc(C#Cc4ccccc4)s3)nc2c1 [Example 4, cyclohexylmethyl-[7-methyl-2-(5-phenylethynyl-thiophen-2-yl)-imidazo[1,2-a]pyridin-3-yl]-amine]",91
5,"Cc1cccn2c(NCC3CCCCC3)c(-c3ccc(C#Cc4ccccc4)s3)nc12 [Example 5, cyclohexylmethyl-[8-methyl-2-(5-phenylethynyl-thiophen-2-yl)-imidazo[1,2-a]pyridin-3-yl]-amine]",100
6,"Cc1cc(C)n2c(NCC3CCCCC3)c(-c3ccc(C#Cc4ccccc4)s3)nc2c1 [Example 6, cyclohexylmethyl-[5,7-dimethyl-2-(5-phenylethynyl-thiophen-2-yl)-imidazo[1,2-a]pyridin-3-yl]-amine]",92
7,"C(#Cc1ccc(-c2nc3c(OCc4ccccc4)cccn3c2NCC2CCCCC2)s1)c1ccccc1 [Example 7, [8-benzyloxy-2-(5-phenylethynyl-thiophen-2-yl)-imidazo[1,2-a]pyridin-3-yl]-cyclohexylmethyl-amine]",89
8,"C(#Cc1ccc(-c2nc3cnccn3c2NCC2CCCCC2)s1)c1ccccc1 [Example 8, cyclohexylmethyl-[2-(5-phenylethynyl-thiophen-2-yl)-imidazo[1,2-a]pyrazin-3-yl]-amine]",100
9,"C(#Cc1ccc(-c2nc3ncccn3c2NCC2CCCCC2)s1)c1ccccc1 [Example 9, cyclohexylmethyl-[2-(5-phenylethynyl-thiophen-2-yl)-imidazo[1,2-a]pyrimidin-3-yl]-amine]",98
10,"COc1ccc(CNc2c(-c3ccc(C#Cc4ccccc4)s3)nc3cccc(C)n23)cc1 [Example 10, (4-methoxy-benzyl)-[5-methyl-2-(5-phenylethynyl-thiophen-2-yl)-imidazo[1,2-a]pyridin-3-yl]-amine]",95
11,"COc1ccc(CNc2c(-c3ccc(C#Cc4ccccc4)s3)nc3ccc(C)cn23)cc1 [Example 11, (4-methoxy-benzyl)-[6-methyl-2-(5-phenylethynyl-thiophen-2-yl)-imidazo[1,2-a]pyridin-3-yl]-amine]",82
12,"COc1ccc(CNc2c(-c3ccc(C#Cc4ccccc4)s3)nc3cc(C)ccn23)cc1 [Example 12, (4-methoxy-benzyl)-[7-methyl-2-(5-phenylethynyl-thiophen-2-yl)-imidazo[1,2-a]pyridin-3-yl]-amine]",96
13,"COc1ccc(CNc2c(-c3ccc(C#Cc4ccccc4)s3)nc3c(C)cccn23)cc1 [Example 13, (4-methoxy-benzyl)-[8-methyl-2-(5-phenylethynyl-thiophen-2-yl)-imidazo[1,2-a]pyridin-3-yl]-amine]",96
14,"COc1ccc(CNc2c(-c3ccc(C#Cc4ccccc4)s3)nc3cc(C)cc(C)n23)cc1 [Example 14, [5,7-dimethyl-2-(5-phenylethynyl-thiophen-2-yl)-imidazo[1,2-a]pyridin-3-yl]-(4-methoxy-benzyl)-amine]",100
15,"COc1ccc(CNc2c(-c3ccc(C#Cc4ccccc4)s3)nc3c(OCc4ccccc4)cccn23)cc1 [Example 15, [8-benzyloxy-2-(5-phenylethynyl-thiophen-2-yl)-imidazo[1,2-a]pyridin-3-yl]-(4-methoxy-benzyl)-amine]",98
16,"COc1ccc(CNc2c(-c3ccc(C#Cc4ccccc4)s3)nc3ccccn23)cc1 [Example 16, (4-methoxy-benzyl)-[2-(5-phenylethynyl-thiophen-2-yl)-imidazo[1,2-a]pyridin-3-yl]-amine]",93
17,"COc1ccc(CNc2c(-c3ccc(C#Cc4ccccc4)s3)nc3cnccn23)cc1 [Example 17, (4-methoxy-benzyl)-[2-(5-phenylethynyl-thiophen-2-yl)-imidazo[1,2-a]pyrazin-3-yl]-amine]",96
18,"Cc1ccc2nc(-c3ccc(C#Cc4ccccc4)s3)c(NC(C)(C)C)n2c1 [Example 19, tert-butyl-[6-methyl-2-(5-phenylethynyl-thiophen-2-yl)-imidazo[1,2-a]pyridin-3-yl]-amine]",78

# Now from value to compound:
row,inhibition at 10 µM [%],SMILES
1,79,"COc1cccc(Nc2c(-c3ccc(C#Cc4ccccc4)s3)nc3c(OCc4ccccc4)cccn23)c1 [Example 20, [8-benzyloxy-2-(5-phenylethynyl-thiophen-2-yl)-imidazo[1,2-a]pyridin-3-yl]-(3-methoxy-phenyl)-amine]"
2,91,"COc1cccc(CNc2c(-c3ccc(C#Cc4ccccc4)s3)nc3cccc(C)n23)c1 [Example 21, (3-methoxy-benzyl)-[5-methyl-2-(5-phenylethynyl-thiophen-2-yl)-imidazo[1,2-a]pyridin-3-yl]-amine]"
3,84,"COc1cccc(CNc2c(-c3ccc(C#Cc4ccccc4)s3)nc3c(C)cccn23)c1 [Example 22, (3-methoxy-benzyl)-[8-methyl-2-(5-phenylethynyl-thiophen-2-yl)-imidazo[1,2-a]pyridin-3-yl]-amine]"
4,86,"COc1cccc(CNc2c(-c3ccc(C#Cc4ccccc4)s3)nc3cc(C)cc(C)n23)c1 [Example 23, [5,7-dimethyl-2-(5-phenylethynyl-thiophen-2-yl)-imidazo[1,2-a]pyridin-3-yl]-(3-methoxy-benzyl)-amine]"
5,94,"COc1cccc(CNc2c(-c3ccc(C#Cc4ccccc4)s3)nc3c(OCc4ccccc4)cccn23)c1 [Example 24, [8-benzyloxy-2-(5-phenylethynyl-thiophen-2-yl)-imidazo[1,2-a]pyridin-3-yl]-(3-methoxy-benzyl)-amine]"
6,81,"COc1cccc(CNc2c(-c3ccc(C#Cc4ccccc4)s3)nc3ccccn23)c1 [Example 25, (3-methoxy-benzyl)-[2-(5-phenylethynyl-thiophen-2-yl)-imidazo[1,2-a]pyridin-3-yl]-amine]"
7,97,"COc1cccc(CNc2c(-c3ccc(C#Cc4ccccc4)s3)nc3cnccn23)c1 [Example 26, (3-methoxy-benzyl)-[2-(5-phenylethynyl-thiophen-2-yl)-imidazo[1,2-a]pyrazin-3-yl]-amine]"
8,82,"Cc1ccc2nc(-c3ccc(C#Cc4ccccc4)s3)c(NC(C)c3ccccc3)n2c1 (stereo not drawn) [Example 27, [6-methyl-2-(5-phenylethynyl-thiophen-2-yl)-imidazo[1,2-a]pyridin-3-yl]-(1-phenyl-ethyl)-amine]"
9,98,"Cc1ccn2c(NC(C)c3ccccc3)c(-c3ccc(C#Cc4ccccc4)s3)nc2c1 (stereo not drawn) [Example 28, [7-methyl-2-(5-phenylethynyl-thiophen-2-yl)-imidazo[1,2-a]pyridin-3-yl]-(1-phenyl-ethyl)-amine]"
10,87,"Cc1cc(C)n2c(NC(C)c3ccccc3)c(-c3ccc(C#Cc4ccccc4)s3)nc2c1 (stereo not drawn) [Example 29, [5,7-dimethyl-2-(5-phenylethynyl-thiophen-2-yl)-imidazo[1,2-a]pyridin-3-yl]-(1-phenyl-ethyl)-amine]"
11,73,"CC(Nc1c(-c2ccc(C#Cc3ccccc3)s2)nc2c(OCc3ccccc3)cccn12)c1ccccc1 (stereo not drawn) [Example 30, [8-benzyloxy-2-(5-phenylethynyl-thiophen-2-yl)-imidazo[1,2-a]pyridin-3-yl]-(1-phenyl-ethyl)-amine]"
12,98,"Cc1cc(C)n2c(NCc3ccccc3Cl)c(-c3ccc(C#Cc4ccccc4)s3)nc2c1 [Example 32, (2-chloro-benzyl)-[5,7-dimethyl-2-(5-phenylethynyl-thiophen-2-yl)-imidazo[1,2-a]pyridin-3-yl]-amine]"
13,98,"Fc1ccc(Nc2c(-c3ccc(C#Cc4ccccc4)s3)nc3cc(-c4ccccc4)ccn23)cc1Cl [Example 33, (3-chloro-4-fluoro-phenyl)-[7-phenyl-2-(5-phenylethynyl-thiophen-2-yl)-imidazo[1,2-a]pyridin-3-yl]-amine]"

# Same assay, conditions: 3[H]-MPEP binding
row,pIC50,SMILES
1,7.19,"CC(C)(C)Nc1c(-c2ccc(C#Cc3ccccc3)s2)nc2cnccn12 [Example 18, tert-butyl-[2-(5-phenylethynyl-thiophen-2-yl)-imidazo[1,2-a]pyrazin-3-yl]-amine]"
2,6.28,"CC(Nc1c(-c2ccc(C#Cc3ccccc3)s2)nc2cnccn12)c1ccccc1 (stereo not drawn) [Example 31, (1-phenyl-ethyl)-[2-(5-phenylethynyl-thiophen-2-yl)-imidazo[1,2-a]pyrazin-3-yl]-amine]"
